Laboratory results taken from ChEMBL document CHEMBL1201862, “PubChem BioAssay data set” (2004).
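Results reflect a 48-hour exposure of cells in 96-well plates to compound at five concentrations. The concentration for 50% growth inhibition is given as GI50.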 Calls of active or inactive are those of the source. Cut-off read from the data, not from the text of the source: active = GI50 up to about 1.1 µM and inactive = higher.

Assays:
Assay in all cases: NCI anticancer screen, dose series, 48 h
[1] = test system: A549
[2] = test system: ACHN
[3] = test system: CAKI-1
[4] = test system: CCRF-CEM
[5] = test system: DLD-1
[6] = test system: HCT-116
[7] = test system: HL-60
[8] = test system: HOP-92
[9] = test system: IGROV-1
[10] = test system: KM-20L2
[11] = test system: MOLT-4
[12] = test system: NCI-H460
[13] = test system: OVCAR-5
[14] = test system: RXF 393
[15] = test system: SF-539
[16] = test system: SK-MEL-28
[17] = test system: SK-MEL-2
[18] = test system: SNB-19
[19] = test system: UO-31

Measured: GI50

O=C1C2=C(SCCS2)C(=O)c2ccccc21
active: [4] 0.783 µM
inactive: [1] 1.9 µM | [2] 1.66 µM | [3] 1.9 µM | [5] 1.96 µM | [6] 1.67 µM | [7] 2.31 µM | [8] 1.68 µM | [9] 1.77 µM | [10] 1.94 µM | [11] 2.23 µM | [12] 1.83 µM | [13] 1.83 µM | [14] 2.1 µM | [15] 1.72 µM | [16] 1.85 µM | [17] 1.99 µM | [18] 1.54 µM | [19] 1.93 µM

O=C(N/N=C/c1cc(Br)ccc1O)N/N=C/c1cc(Br)ccc1O
inactive: [1] 1.56 µM | [2] 4.6 µM | [3] 2.79 µM | [4] 1.4 µM | [5] 2.9 µM | [7] 1.25 µM | [9] 2.14 µM | [10] 4.85 µM | [11] 1.97 µM | [12] 3.1 µM | [13] 2.84 µM | [14] > 100 µM | [16] > 100 µM | [18] 5.31 µM
active: [8] 0.661 µM | [15] 0.877 µM | [19] 0.64 µM

COc1ccc(/C=N\N2C(=O)Cc3ccccc32)cc1
inactive: [1] > 100 µM | [2] > 100 µM | [3] > 100 µM | [4] > 100 µM | [5] > 100 µM | [6] > 100 µM | [7] > 100 µM | [8] 22.3 µM | [9] > 100 µM | [10] > 100 µM | [11] 41.4 µM | [12] > 100 µM | [13] > 100 µM | [15] 39 µM | [16] > 100 µM | [17] > 100 µM | [18] > 100 µM | [19] 39.3 µM

CCOC(=O)CCC(NC(=O)c1ccc(NC(OC)c2nc3cc(C(F)(F)F)ccc3nc2-c2ccccc2)cc1)C(=O)OCC (configuration not stated)
inactive: [1] 18.5 µM | [2] 16.1 µM | [3] 17.1 µM | [4] 2.51 µM | [5] 9.4 µM | [6] 2.92 µM | [7] 2.21 µM | [8] 16 µM | [9] 15.7 µM | [10] 13.6 µM | [11] 2.67 µM | [12] 12.7 µM | [13] 17.6 µM | [14] 13.9 µM | [15] 13.2 µM | [16] 17.3 µM | [17] 17.3 µM | [18] 14.4 µM | [19] 13.6 µM

CSc1ccc(Cc2cc(C(C)(C)C)cc(C(C)(C)C)c2O)cc1
inactive: [1] 13.6 µM | [2] 15 µM | [3] 16.7 µM | [4] 15.5 µM | [5] 13.8 µM | [6] 10.8 µM | [7] 8.67 µM | [9] 13.8 µM | [10] 14.6 µM | [11] 8.07 µM | [12] 14 µM | [13] 3.11 µM | [14] 13.3 µM | [15] 17.3 µM | [16] 16.5 µM | [17] 3.88 µM | [18] 16.3 µM | [19] 17 µM

C=CCN1C(=O)C/C(=C2/CCC(=O)N2CC=C)C1=O
inactive: [1] > 100 µM | [2] > 100 µM | [3] > 100 µM | [4] > 100 µM | [5] > 100 µM | [6] > 100 µM | [7] > 100 µM | [8] > 100 µM | [9] > 100 µM | [10] > 100 µM | [11] > 100 µM | [12] > 100 µM | [13] > 100 µM | [14] > 100 µM | [15] > 100 µM | [16] > 100 µM | [17] > 100 µM | [18] > 100 µM | [19] > 100 µM

O=C(CCC(=O)Nc1ccc(Cl)cc1)CC(=O)c1ccc(F)cc1
inactive: [1] > 100 µM | [2] > 100 µM | [3] > 100 µM | [5] > 100 µM | [6] > 100 µM | [7] > 100 µM | [8] > 100 µM | [9] > 100 µM | [10] > 100 µM | [11] > 100 µM | [12] > 100 µM | [13] > 100 µM | [15] > 100 µM | [16] > 100 µM | [17] > 100 µM | [18] > 100 µM | [19] > 100 µM
